The IC50 is the concentration that inhibits the measured activity by half. Read a high IC50 as weaker potency in that assay. As a reminder, the bioavailability is dose-corrected exposure relative to a reference, in per cent. For orientation: Cmax means the peak of the concentration-time curve. A word on the Tmax: it is the time at which the peak concentration occurs.

The target in data set [1] is Human immunodeficiency virus type 1 protease (Human immunodeficiency virus 1, UniProt Q72874). The data set can be described thus: In vitro inhibitory activity against HIV-1 protease was evaluated.
The test system of data set [2] is Human immunodeficiency virus 1. Put plainly: Inhibition of viral spread in MT-4 human lymphoid cells infected with the HIV-IIIb isolate. It counts as functional. The following applies: Human immunodeficiency virus 1, lymphoid; read-out: CIC95.
Data set [3] is described as follows: Oral bioavailability in dog. The settings on record: in vivo. Type of data set: ADME, organism-based, Canis lupus familiaris.
The nature of data set [4]: Maximum plasma concentration in dog. It counts as ADME, organism-based, Canis lupus familiaris.
Data set [5] in a line: Time taken for maximum plasma concentration in dog. Type of data set: ADME, organism-based, Canis lupus familiaris.

Compound `CC(C)(C)NC(=O)[C@@H]1CN(Cc2cccc(O)c2)CCN1C[C@@H](O)[C@H](Cc1ccccc1)NC(=O)O[C@H]1CCOC1` registered a 50% inhibitory concentration (IC50) in data set [1] of 482 nM. Moreover, the IC95 in data set [2] came out at 400 nM.
In the case of `CC(C)(C)NC(=O)[C@@H]1CN(CCCc2ccccc2)CCN1C[C@@H](O)[C@H](Cc1ccccc1)NC(=O)O[C@H]1CCOC1`, in data set [1], it took 175 nM to reach half-maximal inhibition (IC50).
In data set [1], `CC(C)(C)NC(=O)[C@@H]1CN(Cc2ccccc2)CCN1C[C@@H](O)[C@H](Cc1ccccc1)NC(=O)O[C@H]1CCOC1` had a half-inhibitory concentration (IC50) of 102 nM.
Consider `CC(C)(C)NC(=O)[C@@H]1CN(C(=O)c2ccccc2)CCN1C[C@@H](O)[C@H](Cc1ccccc1)NC(=O)O[C@H]1CCOC1`, for which the concentration for half-maximal inhibition (IC50) in data set [1] was found to be 414 nM.
In the case of `CC(C)(C)NC(=O)[C@@H]1CN(C(=O)c2cccnc2)CCN1C[C@@H](O)[C@H](Cc1ccccc1)NC(=O)O[C@H]1CCOC1`, the 50% inhibitory concentration (IC50) in data set [1] came to 371 nM.
On to `CC(C)[C@@H]1[C@H](OC(=O)N[C@@H](Cc2ccccc2)[C@H](O)CN2CCN(Cc3ccc4ccccc4c3)C[C@H]2C(=O)NC(C)(C)C)CCS1(=O)=O`, for which the IC95 in data set [2] was determined as 50 nM.
For `CC(C)(C)NC(=O)[C@@H]1CN(Cc2ccccn2)CCN1C[C@@H](O)[C@H](Cc1ccccc1)NC(=O)O[C@H]1CCOC1`, half-maximal inhibition in data set [1] (IC50) was put at 957 nM.
With `CC(C)[C@@H]1[C@H](OC(=O)N[C@@H](Cc2ccccc2)[C@H](O)CN2CCN(Cc3cc(Cl)cc(Cl)c3)C[C@H]2C(=O)NC(C)(C)C)CCS1(=O)=O`, the IC95 in data set [2] was 100 nM.
`CC(C)(C)NC(=O)[C@@H]1CN(Cc2ccc(O)cc2)CCN1C[C@@H](O)[C@H](Cc1ccccc1)NC(=O)O[C@H]1CCOC1` came in with an IC50 in data set [1] of 153 nM.
For `Cc1cc(C)cc(CN2CCN(C[C@@H](O)[C@H](Cc3ccccc3)NC(=O)O[C@@H]3CCS(=O)(=O)[C@@H]3C(C)C)[C@H](C(=O)NC(C)(C)C)C2)c1`, the IC95 in data set [2] came to 100 nM.
Turning to `Cc1ccc(CN2CCN(C[C@@H](O)[C@H](Cc3ccccc3)NC(=O)O[C@@H]3CCS(=O)(=O)[C@@H]3C(C)C)[C@H](C(=O)NC(C)(C)C)C2)cn1`, the IC95 in data set [2] worked out at 100 nM.
The compound `CC(C)(C)NC(=O)[C@@H]1CN(C(=O)OCc2ccccc2)CCN1C[C@@H](O)[C@H](Cc1ccccc1)NC(=O)O[C@H]1CCOC1` displayed an IC50 in data set [1] of 18.9 nM.
On the same count and under the same terms, to `CC(C)(C)NC(=O)[C@@H]1CN(CCc2ccccc2)CCN1C[C@@H](O)[C@H](Cc1ccccc1)NC(=O)O[C@H]1CCOC1` belongs 478 nM.
For `CC(C)(C)NC(=O)[C@@H]1CN(C(=O)c2ccccn2)CCN1C[C@@H](O)[C@H](Cc1ccccc1)NC(=O)O[C@H]1CCOC1`, in data set [1], the IC50 was 257 nM.
The compound `CC(C)(C)NC(=O)[C@@H]1CN(C(=O)c2ccncc2)CCN1C[C@@H](O)[C@H](Cc1ccccc1)NC(=O)O[C@H]1CCOC1` had a half-inhibitory concentration (IC50) in data set [1] of 132 nM.
Still for that read-out and setting: the figure for `CC(C)(C)NC(=O)[C@@H]1CN(C(=O)OCc2ccccc2)CCN1C[C@H](O)[C@H](Cc1ccccc1)NC(=O)O[C@H]1CCOC1` is 12000 nM.
Regarding `CC(C)(C)NC(=O)[C@@H]1CN(Cc2ccncc2)CCN1C[C@@H](O)[C@H](Cc1ccccc1)NC(=O)O[C@H]1CCOC1`, it took 293 nM to reach half-maximal inhibition in data set [1] (IC50). For the same compound, in data set [2], the IC95 came to 1500 nM.
Compound `Cc1cc(CN2CCN(C[C@@H](O)[C@H](Cc3ccccc3)NC(=O)O[C@@H]3CCS(=O)(=O)[C@@H]3C(C)C)[C@H](C(=O)NC(C)(C)C)C2)cc(Cl)n1` yielded a bioavailability in data set [3] of 34.8%. The IC95 in data set [2] amounted to 50 nM.
With `CC(C)[C@@H]1[C@H](OC(=O)N[C@@H](Cc2ccccc2)[C@H](O)CN2CCN(Cc3ccncc3)C[C@H]2C(=O)NC(C)(C)C)CCS1(=O)=O`, in data set [4], the concentration peaked (Cmax) at 6.5 µM. Besides, the IC95 in data set [2] is 200 nM.
For `CC(C)[C@@H]1[C@H](OC(=O)N[C@@H](Cc2ccccc2)[C@H](O)CN2CCN(Cc3cccc(O)c3)C[C@H]2C(=O)NC(C)(C)C)CCS1(=O)=O`, the Tmax in data set [5] is 25 min. Also, in data set [4], the highest level (Cmax) was 4 µM. Further, the IC95 in data set [2] was found to be 100 nM.
For `CC(C)(C)NC(=O)[C@@H]1CN(Cc2ccccc2O)CCN1C[C@@H](O)[C@H](Cc1ccccc1)NC(=O)O[C@H]1CCOC1`, it took 102 nM to reach half-maximal inhibition in data set [1] (IC50).
In turn, `CC(C)(C)NC(=O)[C@@H]1CN(Cc2cccnc2)CCN1C[C@@H](O)[C@H](Cc1ccccc1)NC(=O)O[C@H]1CCOC1` showed an IC50 in data set [1] of 676 nM. The IC95 in data set [2] amounted to 1500 nM.
